From US20240228446A1, “PREPARATION METHOD FOR BICYCLIC COMPOUND AND APPLICATION AS ANTIFUNGAL AGENT” (priority 2021, published 2024)
Values after ≈ are worked out from the molar mass of the structure shown.

What follows are molecules tested on Candida albicans ATCC MYA-2876 (assay: Minimal inhibitory concentration (MIC) test on fungal growth (CLSI M27, yeasts)). Details: Candida albicans, 24 h, read-out: MIC Candida albicans ATCC MYA-2876.
Format: cell-based
Protocol: • RPMI1640 medium: Brand: Gibco, article number: 31800-014 • Sabouraud dextrose agar (SDA): Brand: Hope Bio, article number: HB0253-81 • Voriconazole: Brand: Adamas, article number: 22105A • Amphotericin B: Brand: AbCam, article number: ab141199
MIC test was conducted in accordance with the guidelines and requirements of CLSI M27 (for yeasts) and M38 (for Aspergillus).
Strain preparation: The strains were inoculated 1 day in advance by streaking on SDA plates with glycerol strains stored at −80° C. The strains were cultured at 35° C. and 40 to 60% humidity for 18 to 24 hours. Streak inoculation of Aspergillus fumigatus and Cryptococcus neoformans was required to be done 3 days and 2 days in advance, respectively.
Preparation of culture medium and compounds: The liquid culture medium RPMI was prepared with pure water, and 0.165 mol/L MOPS was added to adjust the pH to 7.0. The mixture was filtered with a 0.22 μm-membrane filter, sterilized, and stored at 4° C. (no more than 3 months). 0.85% physiological saline was sterilized at 121° C. for 30 min and then stored at room temperature (no more than 1 week). The compounds were dissolved in DMSO to 12.8 mg/mL and stored at −20° C.
For yeast, 3 to 5 colonies were selected from the SDA plate on the day of testing and fully suspended in 5 mL of sterilized 0.85% physiological saline. The turbidity of the bacterial suspension was measured with a turbidimeter, and the turbidity was adjusted to approximately 0.2. The bacterial suspension was 50-fold and 20-fold (1000-fold in total) diluted in RPMI1640 medium, respectively, to serve as the inoculum. The final inoculum concentration was 500 to 2500 CFU/mL.
The compound was diluted to the highest 800 μg/mL (or 400 μg/mL) with DMSO, and a 10-step 2-fold gradient dilution was performed, resulting in 11 concentrations. 2 μL of the gradient-diluted compound was transferred to the corresponding wells of a 96-well plate, and then 198 μL of the inoculum was transferred to the test plate. The plate was incubated at 35° C. for 24 hours (Aspergillus fumigatus and Cryptococcus neoformans were incubated for 48 and 72 hours, respectively).
After the incubation, the growth of the fungi was visually observed. The lowest concentration of the compound that inhibited the growth of yeast by 50% (inhibited Aspergillus by 100%) was defined as the minimum inhibitory concentration (MIC, μg/mL). A magnifying glass or reading at OD530 nm could be used to assist in determining the MIC. Photos were taken of the test plates for record keeping.

Row | Structure (SMILES) | MIC [µg/mL]
1 | NC[C@H](O)COc1ccc(C23CC(C(F)(F)C(O)(Cn4cnnn4)c4ccc(F)cc4F)(C2)C3)cc1 (stereo partly shown) [Compound 52] | 1 (≈ 1.97 µM)
2 | CC(C)NC[C@@H](O)COc1ccc(C23CC(C(F)(F)C(O)(Cn4cnnn4)c4ccc(F)cc4F)(C2)C3)cc1 (stereo partly shown) [Compound 54] | 0.5 (≈ 0.91 µM)
3 | OC(COc1ccc(C23CC(C(F)(F)C(O)(Cn4cnnn4)c4ccc(F)cc4F)(C2)C3)cc1)CN1CCOCC1 (stereo not shown) [Compound 57] | 0.06 (≈ 0.104 µM)
4 | CN(C)CCOc1ccc(C23CC(C(F)(F)C(O)(Cn4cnnn4)c4ccc(F)cc4F)(C2)C3)cc1 (stereo not shown) [Compound 64] | 0.06 (≈ 0.119 µM)
5 | OC(Cn1cnnn1)(c1ccc(F)cc1F)C(F)(F)C12CC(c3ccc(Oc4ccccn4)cc3)(C1)C2 (stereo not shown) [Compound 71] | 0.03 (≈ 0.0587 µM)

Same assay, conditions: Candida albicans; lowest concentration inhibiting growth of yeast by 50%; 35° C., 24 hours; RPMI1640; read-out: MIC Candida albicans ATCC MYA-2876

Row | Structure (SMILES) | MIC [µg/mL]
6 | CC(C)NC[C@H](O)COc1ccc(C23CC(C(F)(F)C(O)(Cn4cnnn4)c4ccc(F)cc4F)(C2)C3)cc1 (stereo partly shown) [Compound 53] | 0.5 (≈ 0.91 µM)
7 | CN(C)C[C@@H](O)COc1ccc(C23CC(C(F)(F)C(O)(Cn4cnnn4)c4ccc(F)cc4F)(C2)C3)cc1 (stereo partly shown) [Compound 55] | 0.25 (≈ 0.467 µM)
8 | CN(C)C[C@H](O)COc1ccc(C23CC(C(F)(F)C(O)(Cn4cnnn4)c4ccc(F)cc4F)(C2)C3)cc1 (stereo partly shown) [Compound 56] | 0.5 (≈ 0.934 µM)
9 | NS(=O)(=O)Oc1ccc(C23CC(C(F)(F)C(O)(Cn4cnnn4)c4ccc(F)cc4F)(C2)C3)cc1 (stereo not shown) [Compound 68] | 0.13 (≈ 0.253 µM)
10 | O=C(COc1ccc(C23CC(C(F)(F)C(O)(Cn4cnnn4)c4ccc(F)cc4F)(C2)C3)cc1)N1CCOCC1 (stereo not shown) [Compound 70] | 0.13 (≈ 0.232 µM)
11 | CN1CCC(COc2ccc(C34CC(C(F)(F)C(O)(Cn5cnnn5)c5ccc(F)cc5F)(C3)C4)cc2)CC1 (stereo not shown) [Compound 74] | 0.13 (≈ 0.238 µM)
12 | CN1CC(COc2ccc(C34CC(C(F)(F)C(O)(Cn5cnnn5)c5ccc(F)cc5F)(C3)C4)cc2)C1 (stereo not shown) [Compound 75] | 0.13 (≈ 0.251 µM)
13 | CNC(=O)c1ccc(C23CC(C(F)(F)C(O)(Cn4cnnn4)c4ccc(F)cc4F)(C2)C3)cc1 (stereo not shown) [Compound 79] | 0.25 (≈ 0.526 µM)

The next lines start with the values.

Row | MIC [µg/mL] | Structure (SMILES)
14 | 0.06 (≈ 0.123 µM) | OC(Cn1cnnn1)(c1ccc(F)cc1F)C(F)(F)C12CC(c3ccc(OC4CNC4)cc3)(C1)C2 (stereo not shown) [Compound 44]
15 | 0.03 (≈ 0.0596 µM) | CN1CC(Oc2ccc(C34CC(C(F)(F)C(O)(Cn5cnnn5)c5ccc(F)cc5F)(C3)C4)cc2)C1 (stereo not shown) [Compound 45]
16 | 0.03 (≈ 0.058 µM) | OC(Cn1cnnn1)(c1ccc(F)cc1F)C(F)(F)C12CC(c3ccc(OCC(F)(F)F)nc3)(C1)C2 (stereo not shown) [Compound 46]
17 | 0.0078 (≈ 0.0151 µM) | OC(Cn1cncn1)(c1ccc(F)cc1F)C(F)(F)C12CC(c3ccc(OCC(F)(F)F)nc3)(C1)C2 (stereo not shown) [Compound 47]
18 | 0.06 (≈ 0.125 µM) | OC(Cn1cnnn1)(CC12CC(c3ccc(OCC(F)(F)F)cc3)(C1)C2)c1ccc(F)cc1F (stereo not shown) [Compound 48]
19 | 0.06 (≈ 0.104 µM) | O[C@H](COc1ccc(C23CC(C(F)(F)C(O)(Cn4cnnn4)c4ccc(F)cc4F)(C2)C3)cc1)CN1CCOCC1 (stereo partly shown) [Compound 58]
20 | 0.13 (≈ 0.244 µM) | O=C1NC[C@H](COc2ccc(C34CC(C(F)(F)C(O)(Cn5cnnn5)c5ccc(F)cc5F)(C3)C4)cc2)O1 (stereo partly shown) [Compound 59]
21 | 0.06 (≈ 0.112 µM) | O=C1NC[C@@H](COc2ccc(C34CC(C(F)(F)C(O)(Cn5cnnn5)c5ccc(F)cc5F)(C3)C4)cc2)O1 (stereo partly shown) [Compound 60]
22 | 0.016 (≈ 0.0325 µM) | COCCOc1ccc(C23CC(C(F)(F)C(O)(Cn4cnnn4)c4ccc(F)cc4F)(C2)C3)cc1 (stereo not shown) [Compound 62]
23 | 0.03 (≈ 0.0571 µM) | OC(Cn1cnnn1)(c1ccc(F)cc1F)C(F)(F)C12CC(c3ccc(OCc4ccccn4)cc3)(C1)C2 (stereo not shown) [Compound 72]
24 | 0.016 (≈ 0.0301 µM) | OC(Cn1cnnn1)(c1ccc(F)cc1F)C(F)(F)C12CC(c3ccc(OCc4nccs4)cc3)(C1)C2 (stereo not shown) [Compound 73]
25 | 0.016 (≈ 0.0336 µM) | COC(=O)c1ccc(C23CC(C(F)(F)C(O)(Cn4cnnn4)c4ccc(F)cc4F)(C2)C3)cc1 (stereo not shown) [Compound 77]
26 | 0.06 (≈ 0.113 µM) | OC(Cn1cnnn1)(c1ccc(F)cc1F)C(F)(F)C12CC(CN3CCC(Oc4ccccc4)CC3)(C1)C2 (stereo not shown) [Compound 80]
27 | 0.06 (≈ 0.135 µM) | N#Cc1ccc(C23CC(C(F)(F)C(F)(Cn4cncn4)c4ccc(F)cc4F)(C2)C3)cc1 (stereo not shown) [Compound 83]

Same assay, conditions: lowest concentration inhibiting growth of yeast by 50%; 35° C., 24 hours; RPMI1640

Row | Structure (SMILES) | MIC Candida albicans ATCC MYA-2876 [µg/mL]
28 | O[C@](Cn1cnnn1)(CC12CC(c3ccc(OCC(F)(F)F)cc3)(C1)C2)c1ccc(F)cc1F [Compound 48A] | 0.016 (≈ 0.0333 µM)
